Measurements as given in patent publication US11739093B2, “Substituted pyrazolopyrazines, imidazopyrazines and [1,2,4]triazolopyrazines as allosteric SHP2 inhibitors” (Revolution Medicines, Inc., priority 2017, dated 2023).

Biological target: SHP2 (Homo sapiens (Human), UniProt Q06124)
Assay: SHP2 Allosteric Inhibition Assay
Format: biochemical
Conditions: 0.2 nM SHP2 with 0.5 μM Activating Peptide 1 or 2; surrogate substrate DiFMUP; prompt fluorescence, kinetic read
Text: Without wishing to be bound by theory, SHP is allosterically activated through binding of bis-tyrosyl-phosphorylated peptides to its Src Homology 2 (SH2) domains. The latter activation step leads to the release of the auto-inhibitory interface of SHP2, which in turn renders the SHP2 protein tyrosine phosphatase (PTP) active and available for substrate recognition and reaction catalysis. The catalytic activity of SHP2 was monitored using the surrogate substrate DiFMUP in a prompt fluorescence assay format.
The phosphatase reactions were performed at room temperature in 96-well black polystyrene plate, flat bottom, non-binding surface (Corning, Cat #3650) using a final reaction volume of 100 μL and the following assay buffer conditions: 50 mM HEPES, pH 7.2, 100 mM NaCl, 0.5 mM EDTA, 0.05% P-20, 1 mM DTT.
The inhibition of SHP2 by compounds of the disclosure (concentrations varying from 0.00005-10 μM) was monitored using an assay in which 0.2 nM of SHP2 was incubated with 0.5 μM of Activating Peptide 1 (sequence: H2N-LN(pY)IDLDLV(dPEG8)LST(pY)ASINFQK-amide) or Activating Peptide 2 (sequence: H2N-LN(pY)AQLWHA(dPEG8)LTI(pY)ATIRRF-amide). After 30-60- minutes incubation at 25° C., the surrogate substrate DiFMUP (Invitrogen, Cat #D6567) was added to the reaction and activity was determined by a kinetic read using a microplate reader (Envision, Perkin-Elmer or Spectramax M5, Molecular Devices). The excitation and emission wavelengths were 340 nm and 450 nm, respectively. Initial rates were determined from a linear fit of the data, and the inhibitor dose response curves were analyzed using normalized IC50 regression curve fitting with control based normalization.

| IC50 | SMILES |
| --- | --- |
| 1100 nM | Cc1nc(N2CCC3(CC2)CO[C@@H](C)[C@H]3N)c2nccn2c1Sc1ccnc(N)c1Cl [Compound 6, (3S,4S)-8-{5-[(2-amino-3-chloropyridin-4-yl)sulfanyl]-6-methylimidazo[1,2-a]pyrazin-8-yl}-3-methyl-2-oxa-8-azaspiro[4.5]decan-4-amine] |
| 340 nM | CC1(N)CCN(c2ncc(Sc3ccnc(N)c3Cl)c3nsnc23)CC1 [Compound 15, 4-((4-(4-amino-4-methylpiperidin-1-yl)-[1,2,5]thiadiazolo[3,4-c]pyridin-7-yl)thio)-3-chloropyridin-2-amine] |
| 83 nM | C[C@@H]1OCC2(CCN(c3ncc(Sc4ccnc(N)c4Cl)c4ncncc34)CC2)[C@@H]1N [Compound 16, (3S,4S)-8-{8-[(2-amino-3-chloropyridin-4-yl)sulfanyl]pyrido[4,3-d]pyrimidin-5-yl}-3-methyl-2-oxa-8-azaspiro[4.5]decan-4-amine] |
| 190 nM | Cc1nc(N2CCC(C)(N)CC2)c2cncn2c1-c1cccc(Cl)c1Cl [Compound 2, 1-(5-(2,3-dichlorophenyl)-6-methylimidazo[1,5-a]pyrazin-8-yl)-4-methylpiperidin-4-amine] |
